This passage reports IC50 results from patent US20090018166A1, “New Pyridine Analogues X 161” (ASTRAZENECA AB, priority 2007, published 2009).

T1 sequence (Q9H244 whole entry): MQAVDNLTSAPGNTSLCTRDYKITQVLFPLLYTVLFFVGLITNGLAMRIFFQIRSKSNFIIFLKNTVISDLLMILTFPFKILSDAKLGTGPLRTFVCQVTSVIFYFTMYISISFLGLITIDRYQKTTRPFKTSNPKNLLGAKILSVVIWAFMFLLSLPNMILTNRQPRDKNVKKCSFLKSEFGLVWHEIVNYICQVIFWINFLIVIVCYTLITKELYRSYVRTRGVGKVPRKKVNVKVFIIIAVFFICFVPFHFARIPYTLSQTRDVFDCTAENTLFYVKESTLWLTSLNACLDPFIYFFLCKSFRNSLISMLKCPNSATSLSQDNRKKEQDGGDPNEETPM

The assay addresses T1, P2Y12 receptor (Homo sapiens, UniProt Q9H244).
T1 construct: expressed in transfected cells; host or cells: CHO cells (membranes)
Briefly: Functional inhibition of 2-Me-S-ADP induced P2Y12 signalling (35S-GTPγS binding, membranes from P2Y12 transfected CHO-cells). To be noted: 35S-GTPγS, EC80 of 2-methyl-thio-adenosine diphosphate, P2Y12 CHO membranes; value given in each example; read-out: GTPγS(IC50 μM). Type of assay: biochemical. As for the experimental part:
Functional inhibition of- the P2Y12 receptor can be measured by in vitro assays using cell membranes from P2Y12 transfected CHO-cells, the methodology is indicated below.
Functional inhibition of 2-Me-S-ADP induced P2Y12 signalling: 5 μg of membranes were diluted in 200 μl of 200 mM NaCl, 1 mM MgCl2, 50 mM HEPES (pH 7.4), 0.01% BSA, 30 μg/ml saponin and 10 μM GDP. To this was added an EC80 concentration of agonist (2-methyl-thio-adenosine diphosphate), the required concentration of test compound and 0.1 μCi ^35S-GTPγS. The reaction was allowed to proceed at 30° C. for 45 min. Samples were then transferred on to GF/B filters using a cell harvester and washed with wash buffer (50 mM Tris (pH 7.4), 5 mM MgCl2, 50 mM NaCl). Filters were then covered with scintilant and counted for the amount of ^35S-GTPγS retained by the filter. Maximum activity was that determined in the presence of the agonist and minimum activity in the absence of the agonist following subtraction of the value determined for non-specific activity. The effect of compounds at various concentrations was plotted according to the equation
y=A+((B−A)/(1+((C/x)̂D)))
and IC50 estimated where A is the bottom plateau of the curve i.e. the final minimum y value B is the top of the plateau of the curve i.e. the final maximum y value C is the x value at the middle of the curve. This represents the log EC50 value when A+B=100 D is the slope factor. x is the original known x values. Y is the original known y values.
What is called IC50 is the concentration that inhibits the measured activity by half. Consider `CCCC(=O)c1cc(C#N)c(N2CCC(C(=O)NS(=O)(=O)CC3CCCCC3)CC2)nc1CN1CCCC1=O` [Example 36, 1-{5-Butyryl-3-cyano-6-[(2-oxopyrrolidin-1-yl)methyl]pyridin-2-yl}-N-[(cyclohexylmethyl)sulfonyl]piperidine-4-carboxamide], for which the IC50 came to 0.014 µM.
Then `CCCC(=O)c1cc(C#N)c(N2CCC(C(=O)NS(=O)(=O)Nc3ccc(F)cc3)CC2)nc1CN1CCCC1=O` [Example 37, 1-{5-Butyryl-3-cyano-6-[(2-oxopyrrolidin-1-yl)methyl]pyridin-2-yl}-N-{[(4-fluorophenyl)amino]sulfonyl}piperidine-4-carboxamide], with 0.019 µM; and `CCCC(=O)c1cc(C#N)c(N2CCC(C(=O)NS(=O)(=O)Nc3ccccc3)CC2)nc1CN1CCCC1=O` [Example 38, N-(Anilinosulfonyl)-1-{5-butyryl-3-cyano-6-[(2-oxopyrrolidin-1-yl)methyl]pyridin-2-yl}piperidine-4-carboxamide], with 0.033 µM.
Then `C=CCCC(=O)c1cc(C#N)c(N2CCC(C(=O)NS(=O)(=O)Cc3ccc(C)cc3)CC2)nc1CN1CCCC1=O` [Example 40, 1-{3-cyano-6-[(2-oxopyrrolidin-1-yl)methyl]-5-pent-4-enoylpyridin-2-yl}-N-[(4-methylbenzyl)sulfonyl]piperidine-4-carboxamide], with 0.0081 µM; and `C=CCCC(=O)c1cc(C#N)c(N2CCC(C(=O)NS(=O)(=O)Cc3ccc(F)cc3F)CC2)nc1CN1CCCC1=O` [Example 41, 1-{3-cyano-6-[(2-oxopyrrolidin-1-yl)methyl]-5-pent-4-enoylpyridin-2-yl}-N-[(2,4-difluorobenzyl)sulfonyl]piperidine-4-carboxamide], with 0.009 µM.
Then `N#Cc1cc(C(=O)CCC(F)(F)F)c(CN2CCCC2=O)nc1N1CCC(C(=O)NS(=O)(=O)Cc2ccc(F)cc2F)CC1` [Example 42, 1-{3-Cyano-6-[(2-oxopyrrolidin-1-yl)methyl]-5-(4,4,4-trifluorobutanoyl)pyridin-2-yl}-N-[(2,4-difluorobenzyl)sulfonyl]piperidine-4-carboxamide], with 0.016 µM; and `Cc1ccc(CS(=O)(=O)NC(=O)C2CCN(c3nc(CN4CCCC4=O)c(C(=O)CCC(F)(F)F)cc3C#N)CC2)cc1` [Example 43, 1-{3-cyano-6-[(2-oxopyrrolidin-1-yl)methyl]-5-(4,4,4-trifluorobutanoyl)pyridin-2-yl}-N-[(4-methylbenzyl)sulfonyl]piperidine-4-carboxamide], with 0.019 µM.
As to `N#Cc1cc(C(=O)CCC(F)(F)F)c(CN2CCCC2=O)nc1N1CCC(C(=O)NS(=O)(=O)CC2CCCC2)CC1` [Example 44, 1-{3-cyano-6-[(2-oxopyrrolidin-1-yl)methyl]-5-(4,4,4-trifluorobutanoyl)pyridin-2-yl}-N-[(cyclopentylmethyl)sulfonyl]piperidine-4-carboxamide], the IC50 came to 0.146 µM.
As for `CN(c1ccc(F)cc1)S(=O)(=O)NC(=O)C1CCN(c2nc(CN3CCCC3=O)c(C(=O)CCC(F)(F)F)cc2C#N)CC1` [Example 45, 1-{3-cyano-6-[(2-oxopyrrolidin-1-yl)methyl]-5-(4,4,4-trifluorobutanoyl)pyridin-2-yl}-N-{[(4-fluorophenyl)(methyl)amino]sulfonyl}piperidine-4-carboxamide], the IC50 was 0.05 µM.
For `CCCCC(=O)c1cc(C#N)c(N2CCC(C(=O)NS(=O)(=O)Nc3ccc(F)cc3)CC2)nc1CN1CCCC1=O` [Example 46, 1-{3-cyano-6-[(2-oxopyrrolidin-1-yl)methyl]-5-pentanoylpyridin-2-yl}-N-{[(4-fluorophenyl)amino]sulfonyl}piperidine-4-carboxamide], the concentration for half-maximal inhibition (IC50) was 0.021 µM.
Then `CCCCC(=O)c1cc(C#N)c(N2CCC(C(=O)NS(=O)(=O)Cc3ccc(C#N)cc3)CC2)nc1CN1CCCC1=O` [Example 47, N-[(4-cyanobenzyl)sulfonyl]-1-{3-cyano-6-[(2-oxopyrrolidin-1-yl)methyl]-5-pentanoylpyridin-2-yl}piperidine-4-carboxamide], with 0.043 µM.
Then `CCCCC(=O)c1cc(C#N)c(N2CCC(C(=O)NS(=O)(=O)CC3CCCCC3)CC2)nc1CN1CCCC1=O` [Example 48, 1-{3-cyano-6-[(2-oxopyrrolidin-1-yl)methyl]-5-pentanoylpyridin-2-yl}-N-[(cyclohexylmethyl)sulfonyl]piperidine-4-carboxamide], with 0.023 µM; and `CCCCC(=O)c1cc(C#N)c(N2CCC(C(=O)NS(=O)(=O)Cc3ccc(C(C)C)cc3)CC2)nc1CN1CCCC1=O` [Example 49, 1-{3-cyano-6-[(2-oxopyrrolidin-1-yl)methyl]-5-pentanoylpyridin-2-yl}-N-[(4-isopropylbenzyl)sulfonyl]piperidine-4-carboxamide], with 0.031 µM; and `C=CCCC(=O)c1cc(Cl)c(N2CCC(C(=O)NS(=O)(=O)N(C)c3ccc(F)cc3)CC2)nc1CN1CCCC1=O` [Example 50, 1-{3-chloro-6-[(2-oxopyrrolidin-1-yl)methyl]-5-pent-4-enoylpyridin-2-yl}-N-{[(4-fluorophenyl)(methyl)amino]sulfonyl}piperidine-4-carboxamide], with 0.167 µM.
The same measure for `C=CCCC(=O)c1cc(Cl)c(N2CCC(C(=O)NS(=O)(=O)Cc3ccccc3)CC2)nc1CN1CCCC1=O` [Example 51, N-(benzylsulfonyl)-1-{3-chloro-6-[(2-oxopyrrolidin-1-yl)methyl]-5-pent-4-enoylpyridin-2-yl}piperidine-4-carboxamide]: 0.069 µM; for `CCCC(=O)c1cc(Cl)c(N2CCC(C(=O)NS(=O)(=O)CC3CCCCC3)CC2)nc1CN1CCCC1=O` [Example 52, 1-{5-butyryl-3-chloro-6-[(2-oxopyrrolidin-1-yl)methyl]pyridin-2-yl}-N-[(cyclohexylmethyl)sulfonyl]piperidine-4-carboxamide]: 0.231 µM.
`CCCC(=O)c1cc(Cl)c(N2CCC(C(=O)NS(=O)(=O)Cc3ccc(F)cc3F)CC2)nc1CN1CCCC1=O` [Example 53, 1-{5-butyryl-3-chloro-6-[(2-oxopyrrolidin-1-yl)methyl]pyridin-2-yl}-N-[(2,4-difluorobenzyl)sulfonyl]piperidine-4-carboxamide]: the half-maximal inhibitory concentration (IC50) came to 0.032 µM.
For the molecule `CCCCC(=O)c1cc(Cl)c(N2CCC(C(=O)NS(=O)(=O)CC3CCCC3)CC2)nc1CN1CCCC1=O` [Example 54, 1-{3-chloro-6-[(2-oxopyrrolidin-1-yl)methyl]-5-pentanoylpyridin-2-yl}-N-[(cyclopentylmethyl)sulfonyl]piperidine-4-carboxamide], the IC50 is 0.938 µM.
In the case of `CCCCC(=O)c1cc(Cl)c(N2CCC(C(=O)NS(=O)(=O)Cc3ccc(F)cc3F)CC2)nc1CN1CCCC1=O` [Example 55, 1-{3-chloro-6-[(2-oxopyrrolidin-1-yl)methyl]-5-pentanoylpyridin-2-yl}-N-[(2,4-difluorobenzyl)sulfonyl]piperidine-4-carboxamide], the half-inhibitory concentration (IC50) worked out at 0.226 µM.
With `CCCCC(=O)c1cc(Cl)c(N2CCC(C(=O)NS(=O)(=O)N(C)c3ccc(F)cc3)CC2)nc1CN1CCCC1=O` [Example 56, 1-{3-chloro-6-[(2-oxopyrrolidin-1-yl)methyl]-5-pentanoylpyridin-2-yl}-N-{[(4-fluorophenyl)(methyl)amino]sulfonyl}piperidine-4-carboxamide], the IC50 was 0.247 µM.
The same measure for `CCCCC(=O)c1cc(Cl)c(N2CCC(C(=O)NS(=O)(=O)Cc3ccccc3)CC2)nc1CN1CCCC1=O` [Example 57, N-(benzylsulfonyl)-1-{3-chloro-6-[(2-oxopyrrolidin-1-yl)methyl]-5-pentanoylpyridin-2-yl}piperidine-4-carboxamide]: 0.079 µM.
The same measure for `N#Cc1cc(C(=O)CCC(F)(F)F)c(CN2CCCC2=O)nc1N1CCC(C(=O)NS(=O)(=O)Cc2ccccc2)CC1` [Example 58, N-(benzylsulfonyl)-1-{3-cyano-6-[(2-oxopyrrolidin-1-yl)methyl]-5-(4,4,4-trifluorobutanoyl)pyridin-2-yl}piperidine-4-carboxamide]: 0.084 µM.
In the case of `CCCCC(=O)c1cc(Cl)c(N2CCC(C(=O)NS(=O)(=O)Cc3ccc(Cl)cc3)CC2)nc1CN1CCCC1=O` [Example 59, N-[(4-chlorobenzyl)sulfonyl]-1-{3-chloro-6-[(2-oxopyrrolidin-1-yl)methyl]-5-pentanoylpyridin-2-yl}piperidine-4-carboxamide], the half-maximal inhibitory concentration (IC50) amounted to 0.132 µM.
Then `CCCCC(=O)c1cc(Cl)c(N2CCC(C(=O)NS(=O)(=O)C(C)c3ccccc3)CC2)nc1CN1CCCC1=O` (stereo not shown) [Example 60, 1-{3-chloro-6-[(2-oxopyrrolidin-1-yl)methyl]-5-pentanoylpyridin-2-yl}-N-[(1-phenylethyl)sulfonyl]piperidine-4-carboxamide], with 0.268 µM.
With `CCCCC(=O)c1cc(C#N)c(N2CCC(C(=O)NS(=O)(=O)C(C)c3ccccc3)CC2)nc1CN1CCCC1=O` (stereo not shown) [Example 61, 1-{3-cyano-6-[(2-oxopyrrolidin-1-yl)methyl]-5-pentanoylpyridin-2-yl}-N-[(1-phenylethyl)sulfonyl]piperidine-4-carboxamide], the half-maximal inhibitory concentration (IC50) was 0.033 µM.
